{
  "source": "patent US20110209253A1",
  "about": "“Method for Improving Plant Health” (BASF SE, priority 2008, published 2011)",
  "key": {"[1]": {"tested_on": "Wheat plants (Triticum aestivum cv. Cubus)", "assay": "Growth-promoting effect on wheat plants after root treatment (hydroponic culture)", "type": "in vivo", "design": "Shoot-FW ± SE / Root-FW ± SE: unit not given here", "details": "for Root-FW ± SE / Shoot-FW ± SE / activity at 1 µM / activity at 3 µM: seven days after treatment; for activity at 1 µM / activity at 3 µM: Triticum aestivum, 168 h", "method": "Wheat plants (Triticum aestivum cv. Cubus) at the 2nd leaf stage were cultivated in 320 mL glass vessels with 300 mL half-strength Linsmaier-Skoog medium (Physiologia Plantarum 18: 100-127, 1964). The solution was aerated throughout experiment. The vessels were incubated randomized in a climate chamber under 16:8 h light:dark cycles (photon flux density 400 μmol m-2 s-1, 400-750 nm, Osram powerstar HQI-R 250W/NDL and Osram krypton 100W lamps) at 22° C. (light):20° C. (dark) and 75% relative humidity (3 plants per vessel, 9 replicate vessels). After 2 days of adaptation, plants were treated with Dimethyl-carbamic acid 2-methylcarbamoyl-2-[(1-methyl-3-trifluoromethyl-1H-pyrazole-4-carbonyl)-amino]-1-(tetrahydro-pyran-4-yl)-ethyl ester (compound 1) which was added to the medium in dimethyl sulfoxide (DMSO) solution (0.1% final concentration of DMSO). Controls received corresponding quantity of DMSO alone, with no adverse effect on the growth of the plants. Seven days after treatment, fresh weights (FW) of shoot and root, as the growth parameters, were measured and mean values±standard error (SE) of 27 plant parts was calculated."}, "[2]": {"tested_on": "Wheat plants (Triticum aestivum cv. Monopol)", "assay": "Growth-promoting effect on wheat plants after foliar treatment (Example 2)", "type": "in vivo", "details": "for Number of tillers: per plant; for activity at 7.81 g/ha / activity at 15.63 g/ha / activity at 31.25 g/ha: Triticum aestivum, 504 h", "method": "Wheat plants (Triticum aestivum cv. Monopol) were grown in soil with ten plants per pot (13 cm diameter) under greenhouse conditions. Plants at the 2nd leaf stage were sprayed with an aqueous solution of formulated Dimethyl-carbamic acid 2-methylcarbamoyl-2-[(1-methyl-3-trifluoromethyl-1H-pyrazole-4-carbonyl)-amino]-1-(tetrahydro-pyran-4-yl)-ethyl ester (compound 1). The compound was applied at three different dose rates, i.e. 31.25/15.63/7.81 g ai/ha and the spray volume was 750 l/ha. Ten replicate pots with ten plants each were used per treatment. After three weeks (21 days) plants were harvested and growth parameters were determined. The recorded parameters were fresh weight, dry weigh, leaf area (all per pot) and number of tillers (per plant). Mean values of results, standard deviation (SD) and percentage to control were calculated."}, "[3]": {"details": "7.81 g/ha foliar spray, 21 days, per pot"}, "[4]": {"details": "15.63 g/ha foliar spray, 21 days, per pot"}, "[5]": {"details": "31.25 g/ha foliar spray, 21 days, per pot"}},
  "note": "Where two headings read alike, the source gives them in different places.",
  "data": [
    {"smiles": "CNC(=O)C(NC(=O)c1cn(C)nc1C(F)(F)F)C(OC(=O)N(C)C)C1CCOCC1", "note": "(stereo not shown) [Compound 1, Dimethyl-carbamic acid 2-methylcarbamoyl-2-[(1-methyl-3-trifluoromethyl-1H-pyrazole-4-carbonyl)-amino]-1-(tetrahydro-pyran-4-yl)-ethyl ester]", "values": [
      {"measurement": "Root-FW ± SE", "setting": "[1]; Experiment 1, 1 μM in medium", "value": "0.403 ± 0.015"},
      {"measurement": "Shoot-FW ± SE", "setting": "[1]; Experiment 1, 1 μM in medium", "value": "0.747 ± 0.017"},
      {"measurement": "Root-FW ± SE", "setting": "[1]; Experiment 1, 3 μM in medium", "value": "0.382 ± 0.013"},
      {"measurement": "Shoot-FW ± SE", "setting": "[1]; Experiment 1, 3 μM in medium", "value": "0.733 ± 0.019"},
      {"measurement": "Root-FW ± SE", "setting": "[1]; Experiment 2, 1 μM in medium", "value": "0.342 ± 0.010"},
      {"measurement": "Shoot-FW ± SE", "setting": "[1]; Experiment 2, 1 μM in medium", "value": "0.736 ± 0.024"},
      {"measurement": "Root-FW ± SE", "setting": "[1]; Experiment 2, 3 μM in medium", "value": "0.335 ± 0.012"},
      {"measurement": "Shoot-FW ± SE", "setting": "[1]; Experiment 2, 3 μM in medium", "value": "0.738 ± 0.021"},
      {"measurement": "activity at 1 µM", "setting": "[1]; Experiment 1, 1 μM in medium, read-out: Root-FW % of control", "value": 113, "unit": "%"},
      {"measurement": "activity at 1 µM", "setting": "[1]; Experiment 1, 1 μM in medium, read-out: Shoot-FW % of control", "value": 115, "unit": "%"},
      {"measurement": "activity at 3 µM", "setting": "[1]; Experiment 1, 3 μM in medium, read-out: Root-FW % of control", "value": 107, "unit": "%"},
      {"measurement": "activity at 3 µM", "setting": "[1]; Experiment 1, 3 μM in medium, read-out: Shoot-FW % of control", "value": 112, "unit": "%"},
      {"measurement": "activity at 1 µM", "setting": "[1]; Experiment 2, 1 μM in medium, read-out: Root-FW % of control", "value": 105, "unit": "%"},
      {"measurement": "activity at 1 µM", "setting": "[1]; Experiment 2, 1 μM in medium, read-out: Shoot-FW % of control", "value": 115, "unit": "%"},
      {"measurement": "activity at 3 µM", "setting": "[1]; Experiment 2, 3 μM in medium, read-out: Root-FW % of control", "value": 103, "unit": "%"},
      {"measurement": "activity at 3 µM", "setting": "[1]; Experiment 2, 3 μM in medium, read-out: Shoot-FW % of control", "value": 115, "unit": "%"},
      {"measurement": "shoot tillering and adventitious root growth", "setting": "[1]; root treatment", "value": "promoted"},
      {"measurement": "stimulation of shoot and root growth relative to controls", "setting": "[1]; root treatment, 1 and 3 μM, two experiments", "value": "up to 15%"},
      {"measurement": "Number of tillers", "setting": "[2]; 7.81 g/ha foliar spray, 21 days", "value": 2.9},
      {"measurement": "Leaf area", "setting": "[2]; [3]", "value": 1121.1, "unit": "cm^2"},
      {"measurement": "Shoot DW", "setting": "[2]; [3]", "value": 4.4, "unit": "g"},
      {"measurement": "Shoot FW", "setting": "[2]; [3]", "value": 43.9, "unit": "g"},
      {"measurement": "Number of tillers", "setting": "[2]; 15.63 g/ha foliar spray, 21 days", "value": 2.8},
      {"measurement": "Leaf area", "setting": "[2]; [4]", "value": 1046.3, "unit": "cm^2"},
      {"measurement": "Shoot DW", "setting": "[2]; [4]", "value": 4.0, "unit": "g"},
      {"measurement": "Shoot FW", "setting": "[2]; [4]", "value": 40.5, "unit": "g"},
      {"measurement": "Number of tillers", "setting": "[2]; 31.25 g/ha foliar spray, 21 days", "value": 2.8},
      {"measurement": "Leaf area", "setting": "[2]; [5]", "value": 1060.3, "unit": "cm^2"},
      {"measurement": "Shoot DW", "setting": "[2]; [5]", "value": 4.2, "unit": "g"},
      {"measurement": "Shoot FW", "setting": "[2]; [5]", "value": 42.8, "unit": "g"},
      {"measurement": "activity at 7.81 g/ha", "setting": "[2]; 7.81 g/ha foliar spray, 21 days, read-out: Leaf area % of control", "value": 126, "unit": "%"},
      {"measurement": "activity at 7.81 g/ha", "setting": "[2]; 7.81 g/ha foliar spray, 21 days, read-out: Number of tillers % of control", "value": 118, "unit": "%"},
      {"measurement": "activity at 7.81 g/ha", "setting": "[2]; 7.81 g/ha foliar spray, 21 days, read-out: Shoot DW % of control", "value": 127, "unit": "%"},
      {"measurement": "activity at 7.81 g/ha", "setting": "[2]; 7.81 g/ha foliar spray, 21 days, read-out: Shoot FW % of control", "value": 126, "unit": "%"},
      {"measurement": "activity at 15.63 g/ha", "setting": "[2]; 15.63 g/ha foliar spray, 21 days, read-out: Leaf area % of control", "value": 118, "unit": "%"},
      {"measurement": "activity at 15.63 g/ha", "setting": "[2]; 15.63 g/ha foliar spray, 21 days, read-out: Number of tillers % of control", "value": 114, "unit": "%"},
      {"measurement": "activity at 15.63 g/ha", "setting": "[2]; 15.63 g/ha foliar spray, 21 days, read-out: Shoot DW % of control", "value": 116, "unit": "%"},
      {"measurement": "activity at 15.63 g/ha", "setting": "[2]; 15.63 g/ha foliar spray, 21 days, read-out: Shoot FW % of control", "value": 116, "unit": "%"},
      {"measurement": "activity at 31.25 g/ha", "setting": "[2]; 31.25 g/ha foliar spray, 21 days, read-out: Leaf area % of control", "value": 120, "unit": "%"},
      {"measurement": "activity at 31.25 g/ha", "setting": "[2]; 31.25 g/ha foliar spray, 21 days, read-out: Number of tillers % of control", "value": 114, "unit": "%"},
      {"measurement": "activity at 31.25 g/ha", "setting": "[2]; 31.25 g/ha foliar spray, 21 days, read-out: Shoot DW % of control", "value": 122, "unit": "%"},
      {"measurement": "activity at 31.25 g/ha", "setting": "[2]; 31.25 g/ha foliar spray, 21 days, read-out: Shoot FW % of control", "value": 123, "unit": "%"},
      {"measurement": "growth promoting (yield increasing) effect, dose response", "setting": "[2]; by lowering the dose rate", "value": "more pronounced"},
      {"measurement": "shoot tillering", "setting": "[2]; foliar treatment", "value": "increased"},
      {"measurement": "increase in fresh and dry weight related to control", "setting": "[2]; foliar treatment, 7.81-31.25 g/ha", "value": "up to 26%"},
      {"measurement": "Leaf area", "setting": "[2]; foliar treatment, lowest dose rate gave the highest effect", "value": "increased"}
    ]}
  ]
}
